Measured values reported in patent US10138227B2, “Heteroaryl substituted pyridines and methods of use” (AbbVie S.à.r.l., priority 2016, dated 2018).

Target: T1, CFTR ΔF508 mutant (Homo sapiens, UniProt P13569, DEL508-508)
T1 construct: expressed in transfected cells; host or cells: CFBE41o- cells transduced with adenoviral vectors
Test: YFP-halide influx assay for the CFTR-ΔF508 mutation
Format: cell-based
Conditions: CFBE41o- cells expressing CFTR ΔF508 and YFP reporter, forskolin 10.67 μM; for EC50: (1-F/F0) vs concentration
Description: The YFP halide influx assay measured the functionality of the cystic fibrosis Transmembrane Conductance regulator (CFTR) channels in the cystic fibrosis bronchial epithelium cell line CFBE41o-. The assay was used to evaluate the capacity of compounds to increase the open probability of existing CFTR channels in the membrane. It makes use of the observation that the yellow fluorescent protein (YFP) variant YFP H148Q, I152L, F47L has its fluorescence substantially quenched by halide ions like Cl^− and I^− (Galietta, L. J. V., Haggie, P. M., Verkman, A. S., 2001. Green fluorescent protein-based halide indicators with improved chloride and iodide affinities. FEBS Lett. 499, 220-224. doi:10.1016/S0014-5793(01)02561-3; Nagai, T., Ibata, K., Park, E. S., Kubota, M., Mikoshiba, K., Miyawaki, A., 2002. A variant of yellow fluorescent protein with fast and efficient maturation for cell-biological applications. Nat. Biotechnol. 20, 87-90. doi:10.1038/nbt0102-87).
For this purpose, CFBE410-cells were seeded in 384 well plates (3000 CFBE cells/well). One day after seeding, the CFBE cells were transduced with adenoviral vectors that direct the expression of the CFTR ΔF508 mutant and of the YFP reporter. Cells were incubated at 27° C., 5% CO2 for 24 hours so as to allow for the proper folding and migration to the membrane of the CFTR channel or treated with a CFTR modulator during 24 hours at 37° C.
The I-induced quenching of fluorescence was recorded on an immediately after injection of iodide for 2 minutes on an FDSS/μCell (Hamamatsu). The capacity of a compound to increase the channel opening was directly correlated with the decrease in fluorescence, and was expressed as (1-(fluorescence after 36 seconds (F)/fluorescence before injection (F0))) and an EC50 was derived from a (1-F/F0) vs compound concentration plot.

T1 sequence (P13569 with tags, fused parts or gaps DEL508-508): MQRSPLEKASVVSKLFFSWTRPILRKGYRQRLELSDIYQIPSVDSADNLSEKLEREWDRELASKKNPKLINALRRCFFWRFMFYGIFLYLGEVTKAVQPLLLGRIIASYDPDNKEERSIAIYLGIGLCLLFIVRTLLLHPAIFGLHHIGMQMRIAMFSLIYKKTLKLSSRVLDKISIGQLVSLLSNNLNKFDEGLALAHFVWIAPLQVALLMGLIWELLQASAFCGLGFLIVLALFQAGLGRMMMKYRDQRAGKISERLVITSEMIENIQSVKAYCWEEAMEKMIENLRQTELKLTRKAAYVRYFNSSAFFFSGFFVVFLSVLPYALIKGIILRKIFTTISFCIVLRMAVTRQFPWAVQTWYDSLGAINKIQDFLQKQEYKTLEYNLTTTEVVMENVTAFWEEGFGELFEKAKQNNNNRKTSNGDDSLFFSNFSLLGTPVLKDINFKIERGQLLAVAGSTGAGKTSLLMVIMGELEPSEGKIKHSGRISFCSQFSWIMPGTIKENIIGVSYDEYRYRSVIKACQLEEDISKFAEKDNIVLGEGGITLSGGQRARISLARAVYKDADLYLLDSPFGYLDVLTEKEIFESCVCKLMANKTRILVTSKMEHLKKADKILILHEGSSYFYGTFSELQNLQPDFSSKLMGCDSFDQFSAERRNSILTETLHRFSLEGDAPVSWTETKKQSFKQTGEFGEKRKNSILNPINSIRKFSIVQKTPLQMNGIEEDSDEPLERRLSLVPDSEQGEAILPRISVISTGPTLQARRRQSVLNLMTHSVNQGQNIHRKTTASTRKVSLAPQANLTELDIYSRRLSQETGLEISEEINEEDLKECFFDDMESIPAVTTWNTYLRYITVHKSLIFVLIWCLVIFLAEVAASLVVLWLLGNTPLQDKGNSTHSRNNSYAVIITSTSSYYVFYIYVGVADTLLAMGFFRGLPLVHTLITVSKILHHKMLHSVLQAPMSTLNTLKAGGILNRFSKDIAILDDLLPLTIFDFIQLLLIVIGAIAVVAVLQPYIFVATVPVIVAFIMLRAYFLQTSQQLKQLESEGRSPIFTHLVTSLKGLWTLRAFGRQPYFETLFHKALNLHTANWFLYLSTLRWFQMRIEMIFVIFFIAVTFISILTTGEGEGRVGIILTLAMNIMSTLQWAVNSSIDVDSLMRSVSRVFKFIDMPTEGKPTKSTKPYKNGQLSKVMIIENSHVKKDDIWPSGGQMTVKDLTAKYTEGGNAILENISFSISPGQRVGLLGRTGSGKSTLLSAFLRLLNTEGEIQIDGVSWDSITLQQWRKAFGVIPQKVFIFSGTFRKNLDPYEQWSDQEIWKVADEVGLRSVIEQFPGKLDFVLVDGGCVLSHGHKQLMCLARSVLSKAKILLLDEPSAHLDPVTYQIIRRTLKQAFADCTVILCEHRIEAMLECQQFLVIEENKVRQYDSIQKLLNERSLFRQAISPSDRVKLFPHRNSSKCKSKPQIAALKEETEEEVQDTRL

Structure (SMILES)	% Activation [%]	EC50 [nM]
Nc1cc(S(=O)(=O)c2ccc(OC(F)(F)F)cc2)cnc1-c1nnc(COC2CCOC2)s1 (centres unmarked) [Compound 29, 2-(5-{[(oxolan-3-yl)oxy]methyl}-1,3,4-thiadiazol-2-yl)-5-[4-(trifluoromethoxy)benzene-1-sulfonyl]pyridin-3-amine]	102.9	16
CCOCc1nnc(-c2ncc(S(=O)(=O)c3ccc(OC(F)(F)F)cc3)cc2N)s1 [Compound 25, 2-[5-(ethoxymethyl)-1,3,4-thiadiazol-2-yl]-5-[4-(trifluoromethoxy)benzene-1-sulfonyl]pyridin-3-amine]	104.42	4.4
Nc1cc(S(=O)(=O)c2ccc(OC(F)(F)F)cc2)cnc1-c1nnc(COc2cccnc2)s1 [Compound 27, 2-(5-{[(pyridin-3-yl)oxy]methyl}-1,3,4-thiadiazol-2-yl)-5-[4-(trifluoromethoxy)benzene-1-sulfonyl]pyridin-3-amine]	96.45	151
Nc1cc(S(=O)(=O)c2ccc(OC(F)(F)F)cc2)cnc1-c1nnco1 [Compound 6, 2-(1,3,4-oxadiazol-2-yl)-5-[4-(trifluoromethoxy)benzene-1-sulfonyl]pyridin-3-amine]	86.03	78.1
Nc1cc(S(=O)(=O)c2ccc(OC(F)(F)F)cc2)cnc1-c1nnc(C[C@H]2CCCO2)s1 [Compound 32, 2-(5-{[(2R)-oxolan-2-yl]methyl}-1,3,4-thiadiazol-2-yl)-5-[4-(trifluoromethoxy)benzene-1-sulfonyl]pyridin-3-amine]	105.02	36.6
COCCOCc1nnc(-c2ncc(S(=O)(=O)c3ccc(OC(F)(F)F)cc3)cc2N)s1 [Compound 17, 2-{5-[(2-methoxyethoxy)methyl]-1,3,4-thiadiazol-2-yl}-5-[4-(trifluoromethoxy)benzene-1-sulfonyl]pyridin-3-amine]	117.3	11.4
CO[C@@H](C)c1nnc(-c2ncc(S(=O)(=O)c3ccc(OC(F)(F)F)cc3)cc2N)s1 [Compound 23, 2-{5-[(1S)-1-methoxyethyl]-1,3,4-thiadiazol-2-yl}-5-[4-(trifluoromethoxy)benzene-1-sulfonyl]pyridin-3-amine]	100.92	37.1
Nc1cc(S(=O)(=O)c2ccc(OC(F)(F)F)cc2)cnc1-c1nnc(COCC2CC2)o1 [Compound 12, 2-{5-[(cyclopropylmethoxy)methyl]-1,3,4-oxadiazol-2-yl}-5-[4-(trifluoromethoxy)benzene-1-sulfonyl]pyridin-3-amine]	100.38	8.52
Nc1cc(S(=O)(=O)c2ccc(C(F)(F)F)cc2)cnc1-c1nnc(CO)o1 [Compound 7, (5-{3-amino-5-[4-(trifluoromethyl)benzene-1-sulfonyl]pyridin-2-yl}-1,3,4-oxadiazol-2-yl)methanol]	109.69	5.8
CO[C@@H](c1ccccc1)c1nnc(-c2ncc(S(=O)(=O)c3ccc(OC(F)(F)F)cc3)cc2N)s1 [Compound 19, 2-{5-[(S)-methoxy(phenyl)methyl]-1,3,4-thiadiazol-2-yl}-5-[4-(trifluoromethoxy)benzene-1-sulfonyl]pyridin-3-amine]	97.54	350
COC(C)c1nnc(-c2ncc(S(=O)(=O)c3ccc(OC(F)(F)F)cc3)cc2N)s1 (centres unmarked) [Compound 22, 2-[5-(1-methoxyethyl)-1,3,4-thiadiazol-2-yl]-5-[4-(trifluoromethoxy)benzene-1-sulfonyl]pyridin-3-amine]	112.9	15.2

Further lines, results first:

% Activation [%]	EC50 [nM]	Structure (SMILES)
109.65	1.57	CC(O)c1nnc(-c2ncc(S(=O)(=O)c3ccc(OC(F)(F)F)cc3)cc2N)o1 (centres unmarked) [Compound 42, 1-(5-{3-amino-5-[4-(trifluoromethoxy)benzene-1-sulfonyl]pyridin-2-yl}-1,3,4-oxadiazol-2-yl)ethan-1-ol]
6.28	> 4990	Nc1cc(S(=O)(=O)c2ccc(OC(F)(F)F)cc2)cnc1-c1nc(C2CCOCC2)no1 [Compound 48, 2-[3-(oxan-4-yl)-1,2,4-oxadiazol-5-yl]-5-[4-(trifluoromethoxy)benzene-1-sulfonyl]pyridin-3-amine]
93.64	2.41	Nc1c(-c2nnc(CO)o2)ncc(S(=O)(=O)c2ccc(OC(F)(F)F)cc2)c1Cl [Compound 57, (5-{3-amino-4-chloro-5-[4-(trifluoromethoxy)benzene-1-sulfonyl]pyridin-2-yl}-1,3,4-oxadiazol-2-yl)methanol]
102.93	12.3	CCOCc1nnc(-c2ncc(S(=O)(=O)c3ccc(OC(F)(F)F)cc3)cc2N)o1 [Compound 36, 2-[5-(ethoxymethyl)-1,3,4-oxadiazol-2-yl]-5-[4-(trifluoromethoxy)benzene-1-sulfonyl]pyridin-3-amine]
59.4	> 1660	COC(C)c1noc(-c2ncc(S(=O)(=O)c3ccc(OC(F)(F)F)cc3)cc2N)n1 (centres unmarked) [Compound 47, 2-[3-(1-methoxyethyl)-1,2,4-oxadiazol-5-yl]-5-[4-(trifluoromethoxy)benzene-1-sulfonyl]pyridin-3-amine]
12.02	> 4990	CC(C)(C)c1noc(-c2ncc(S(=O)(=O)c3ccc(OC(F)(F)F)cc3)cc2N)n1 [Compound 54, 2-(3-tert-butyl-1,2,4-oxadiazol-5-yl)-5-[4-(trifluoromethoxy)benzene-1-sulfonyl]pyridin-3-amine]
105.25	1.63	Nc1cc(S(=O)(=O)c2ccc(OC(F)(F)F)cc2)cnc1-c1nnc([C@@H](O)Cc2ccccc2)o1 [Compound 44, (1S)-1-(5-{3-amino-5-[4-(trifluoromethoxy)benzene-1-sulfonyl]pyridin-2-yl}-1,3,4-oxadiazol-2-yl)-2-phenyl ethan-1-ol]
106.65	36.8	Nc1cc(S(=O)(=O)c2ccc(OC(F)(F)F)cc2)cnc1-c1nnc(C[C@@H]2CCCO2)o1 [Compound 40, 2-(5-{[(2S)-oxolan-2-yl]methyl}-1,3,4-oxadiazol-2-yl)-5-[4-(trifluoromethoxy)benzene-1-sulfonyl]pyridin-3-amine]
110.8	< 0.77	CC(C)(O)c1nnc(-c2ncc(S(=O)(=O)c3ccc(OC(F)(F)F)cc3)cc2N)o1 [Compound 43, 2-(5-{3-amino-5-[4-(trifluoromethoxy)benzene-1-sulfonyl]pyridin-2-yl}-1,3,4-oxadiazol-2-yl)propan-2-ol]
45.59	> 1660	Nc1cc(S(=O)(=O)c2ccc(OC(F)(F)F)cc2)cnc1-c1nc(CC2CC2)no1 [Compound 50, 2-[3-(cyclopropylmethyl)-1,2,4-oxadiazol-5-yl]-5-[4-(trifluoromethoxy)benzene-1-sulfonyl]pyridin-3-amine]
82.3	> 1660	COC(C)(C)c1noc(-c2ncc(S(=O)(=O)c3ccc(OC(F)(F)F)cc3)cc2N)n1 [Compound 46, 2-[3-(2-methoxypropan-2-yl)-1,2,4-oxadiazol-5-yl]-5-[4-(trifluoromethoxy)benzene-1-sulfonyl]pyridin-3-amine]
119.45	9.88	Nc1cc(S(=O)(=O)c2ccc(OC(F)(F)F)cc2)cnc1-c1nnc(COC(F)F)o1 [Compound 39, 2-{5-[(difluoromethoxy)methyl]-1,3,4-oxadiazol-2-yl}-5-[4-(trifluoromethoxy)benzene-1-sulfonyl]pyridin-3-amine]
103.5	39.8	COCCOCc1nnc(-c2ncc(S(=O)(=O)c3ccc(OC(F)(F)F)cc3)cc2N)o1 [Compound 33, 2-{5-[(2-methoxyethoxy)methyl]-1,3,4-oxadiazol-2-yl}-5-[4-(trifluoromethoxy)benzene-1-sulfonyl]pyridin-3-amine]
122.9	15.3	CN(Cc1ccccc1)S(=O)(=O)c1cnc(-c2nnc(CO)o2)c(N)c1 [Compound 60, 5-amino-N-benzyl-6-[5-(hydroxymethyl)-1,3,4-oxadiazol-2-yl]-N-methylpyridine-3-sulfonamide]
98.52	20.8	CO[C@@H](C)c1nnc(-c2ncc(S(=O)(=O)c3ccc(OC(F)(F)F)cc3)cc2N)o1 [Compound 35, 2-{5-[(1S)-1-methoxyethyl]-1,3,4-oxadiazol-2-yl}-5-[4-(trifluoromethoxy)benzene-1-sulfonyl]pyridin-3-amine]
<1.18	–	Nc1c(-c2nnc(CO)o2)ncc(S(=O)(=O)c2ccc(OC(F)(F)F)cc2)c1Br [Compound 66, (5-{3-amino-4-bromo-5-[4-(trifluoromethoxy)benzene-1-sulfonyl]pyridin-2-yl}-1,3,4-oxadiazol-2-yl)methanol]
